Test results from ChEMBL document CHEMBL5465560, “Selectivity Literature for EUbOPEN Chemogenomic Library” (2024).

Legend:
[1] = target: T1, Serine/threonine-protein kinase tousled-like 1 (Homo sapiens) (UniProt Q9UKI8); assay: Selectivity interaction (KinomeScan (DiscoverX)) EUB0001049a TLK1; conditions: at 1 µM
T1 sequence (whole entry): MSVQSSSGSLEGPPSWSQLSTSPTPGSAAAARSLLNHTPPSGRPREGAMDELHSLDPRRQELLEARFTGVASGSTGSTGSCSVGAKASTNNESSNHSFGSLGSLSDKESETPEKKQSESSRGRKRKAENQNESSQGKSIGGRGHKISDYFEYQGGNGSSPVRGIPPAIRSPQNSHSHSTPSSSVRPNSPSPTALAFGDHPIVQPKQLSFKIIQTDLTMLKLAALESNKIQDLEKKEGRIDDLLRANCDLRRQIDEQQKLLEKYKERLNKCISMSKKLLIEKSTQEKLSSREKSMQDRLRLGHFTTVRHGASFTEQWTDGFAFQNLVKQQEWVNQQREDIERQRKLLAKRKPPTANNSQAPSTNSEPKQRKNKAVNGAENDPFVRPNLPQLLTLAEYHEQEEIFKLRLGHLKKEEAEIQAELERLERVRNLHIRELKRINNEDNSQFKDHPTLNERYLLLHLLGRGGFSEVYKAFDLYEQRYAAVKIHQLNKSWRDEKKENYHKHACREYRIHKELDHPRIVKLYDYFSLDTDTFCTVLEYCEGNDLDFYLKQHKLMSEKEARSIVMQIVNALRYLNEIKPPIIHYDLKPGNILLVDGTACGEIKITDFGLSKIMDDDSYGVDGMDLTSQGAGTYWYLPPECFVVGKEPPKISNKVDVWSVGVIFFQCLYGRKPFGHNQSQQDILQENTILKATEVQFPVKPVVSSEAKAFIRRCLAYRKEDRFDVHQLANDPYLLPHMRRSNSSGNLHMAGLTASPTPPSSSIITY

[2] = target: AP2-associated protein kinase 1 (Homo sapiens, UniProt Q2M2I8); assay: Selectivity interaction (Kinase panel (DSF assay)) EUB0001559a AAK1
Chain of AP2-associated protein kinase 1 (Q2M2I8 whole entry, looked up): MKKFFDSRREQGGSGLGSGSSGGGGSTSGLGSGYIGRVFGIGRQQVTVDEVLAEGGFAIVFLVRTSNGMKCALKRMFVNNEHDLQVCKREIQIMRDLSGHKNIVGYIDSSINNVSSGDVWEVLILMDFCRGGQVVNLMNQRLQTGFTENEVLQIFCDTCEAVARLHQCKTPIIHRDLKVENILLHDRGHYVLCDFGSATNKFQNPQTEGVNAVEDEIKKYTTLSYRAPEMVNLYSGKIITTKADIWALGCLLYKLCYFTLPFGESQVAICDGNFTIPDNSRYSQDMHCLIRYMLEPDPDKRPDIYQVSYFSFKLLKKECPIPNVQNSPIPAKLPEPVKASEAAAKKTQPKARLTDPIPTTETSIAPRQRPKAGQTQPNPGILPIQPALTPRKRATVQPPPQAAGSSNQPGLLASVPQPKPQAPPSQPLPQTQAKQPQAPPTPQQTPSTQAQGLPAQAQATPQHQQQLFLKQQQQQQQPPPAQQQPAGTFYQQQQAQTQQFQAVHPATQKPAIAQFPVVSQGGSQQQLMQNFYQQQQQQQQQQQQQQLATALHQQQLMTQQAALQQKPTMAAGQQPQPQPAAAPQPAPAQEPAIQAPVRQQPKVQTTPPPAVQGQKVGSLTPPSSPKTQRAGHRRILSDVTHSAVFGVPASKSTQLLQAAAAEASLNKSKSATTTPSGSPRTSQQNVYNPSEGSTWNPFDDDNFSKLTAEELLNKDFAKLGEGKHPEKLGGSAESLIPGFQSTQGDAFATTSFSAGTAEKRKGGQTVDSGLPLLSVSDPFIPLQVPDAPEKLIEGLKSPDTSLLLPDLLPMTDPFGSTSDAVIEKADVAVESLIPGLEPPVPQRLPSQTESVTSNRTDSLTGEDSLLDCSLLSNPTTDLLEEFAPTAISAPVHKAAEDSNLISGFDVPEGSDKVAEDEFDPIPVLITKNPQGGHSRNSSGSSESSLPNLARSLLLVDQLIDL

[3] = target: Dual specificity protein kinase CLK4 (Homo sapiens, UniProt Q9HAZ1); assay: Selectivity interaction (Kinase panel (Invitrogen)) EUB0000639a CLK4; conditions: at 200 nM
Chain of Dual specificity protein kinase CLK4 (Q9HAZ1 whole entry, looked up): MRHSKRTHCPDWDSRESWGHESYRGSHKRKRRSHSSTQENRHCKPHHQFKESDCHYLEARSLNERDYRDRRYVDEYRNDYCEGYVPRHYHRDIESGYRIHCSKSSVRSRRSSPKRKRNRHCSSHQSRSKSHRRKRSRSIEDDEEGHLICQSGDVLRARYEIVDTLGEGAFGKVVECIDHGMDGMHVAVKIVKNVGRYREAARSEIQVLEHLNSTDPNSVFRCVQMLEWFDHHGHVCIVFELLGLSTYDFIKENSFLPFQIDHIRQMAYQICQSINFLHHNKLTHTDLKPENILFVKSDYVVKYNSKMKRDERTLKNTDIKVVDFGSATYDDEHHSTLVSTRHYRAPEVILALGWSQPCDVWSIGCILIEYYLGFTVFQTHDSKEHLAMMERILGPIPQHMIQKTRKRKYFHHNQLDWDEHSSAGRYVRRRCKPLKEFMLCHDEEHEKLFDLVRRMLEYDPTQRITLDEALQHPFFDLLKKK

[4] = target: MAP kinase-activated protein kinase 2 (Homo sapiens, UniProt P49137); conditions: at 10 µM
Chain of MAP kinase-activated protein kinase 2 (P49137 whole entry, looked up): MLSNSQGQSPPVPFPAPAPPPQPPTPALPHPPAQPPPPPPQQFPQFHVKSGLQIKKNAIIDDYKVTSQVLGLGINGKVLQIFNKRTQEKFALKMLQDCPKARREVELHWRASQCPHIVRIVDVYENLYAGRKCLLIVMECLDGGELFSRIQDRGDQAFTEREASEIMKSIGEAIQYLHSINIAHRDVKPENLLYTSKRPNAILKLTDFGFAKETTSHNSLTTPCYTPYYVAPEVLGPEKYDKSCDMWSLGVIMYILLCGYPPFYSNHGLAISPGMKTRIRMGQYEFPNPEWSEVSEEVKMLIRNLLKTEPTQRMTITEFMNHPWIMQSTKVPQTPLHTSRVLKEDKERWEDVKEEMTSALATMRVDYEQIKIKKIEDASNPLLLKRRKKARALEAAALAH

[5] = target: Mitogen-activated protein kinase kinase kinase kinase 5 (Homo sapiens) (UniProt Q9Y4K4); assay: Selectivity interaction (KinomeScan (DiscoverX)) EUB0000655a MAP4K5; conditions: at 10 µM
Chain of Mitogen-activated protein kinase kinase kinase kinase 5 (Homo sapiens) (Q9Y4K4 whole entry, looked up): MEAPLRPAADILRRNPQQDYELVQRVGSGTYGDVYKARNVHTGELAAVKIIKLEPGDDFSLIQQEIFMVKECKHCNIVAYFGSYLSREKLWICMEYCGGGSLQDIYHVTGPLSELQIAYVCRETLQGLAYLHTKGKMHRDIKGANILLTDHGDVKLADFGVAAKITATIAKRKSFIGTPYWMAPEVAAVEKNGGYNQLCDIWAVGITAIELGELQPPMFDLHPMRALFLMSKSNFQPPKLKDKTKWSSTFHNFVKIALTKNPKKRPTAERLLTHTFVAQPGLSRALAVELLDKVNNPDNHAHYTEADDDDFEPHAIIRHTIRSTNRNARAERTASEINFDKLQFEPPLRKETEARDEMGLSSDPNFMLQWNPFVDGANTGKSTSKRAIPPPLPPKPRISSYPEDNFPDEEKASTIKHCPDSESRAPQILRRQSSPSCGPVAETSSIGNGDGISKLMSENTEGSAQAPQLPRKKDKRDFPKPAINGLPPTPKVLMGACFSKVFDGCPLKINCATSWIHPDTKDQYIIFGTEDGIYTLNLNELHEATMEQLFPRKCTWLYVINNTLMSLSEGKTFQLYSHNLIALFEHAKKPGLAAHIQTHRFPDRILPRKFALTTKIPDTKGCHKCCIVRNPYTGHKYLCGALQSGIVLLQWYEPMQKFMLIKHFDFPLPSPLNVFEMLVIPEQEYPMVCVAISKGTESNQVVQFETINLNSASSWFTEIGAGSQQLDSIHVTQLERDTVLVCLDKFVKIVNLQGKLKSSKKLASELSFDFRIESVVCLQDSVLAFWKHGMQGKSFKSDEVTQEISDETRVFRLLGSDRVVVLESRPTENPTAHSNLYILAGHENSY

[6] = target: T2, Serine/threonine-protein kinase Nek5 (Homo sapiens) (UniProt Q6P3R8); assay: Selectivity interaction (KinomeScan (DiscoverX)) EUB0000695a NEK5; conditions: at 100 nM
T2 sequence (whole entry): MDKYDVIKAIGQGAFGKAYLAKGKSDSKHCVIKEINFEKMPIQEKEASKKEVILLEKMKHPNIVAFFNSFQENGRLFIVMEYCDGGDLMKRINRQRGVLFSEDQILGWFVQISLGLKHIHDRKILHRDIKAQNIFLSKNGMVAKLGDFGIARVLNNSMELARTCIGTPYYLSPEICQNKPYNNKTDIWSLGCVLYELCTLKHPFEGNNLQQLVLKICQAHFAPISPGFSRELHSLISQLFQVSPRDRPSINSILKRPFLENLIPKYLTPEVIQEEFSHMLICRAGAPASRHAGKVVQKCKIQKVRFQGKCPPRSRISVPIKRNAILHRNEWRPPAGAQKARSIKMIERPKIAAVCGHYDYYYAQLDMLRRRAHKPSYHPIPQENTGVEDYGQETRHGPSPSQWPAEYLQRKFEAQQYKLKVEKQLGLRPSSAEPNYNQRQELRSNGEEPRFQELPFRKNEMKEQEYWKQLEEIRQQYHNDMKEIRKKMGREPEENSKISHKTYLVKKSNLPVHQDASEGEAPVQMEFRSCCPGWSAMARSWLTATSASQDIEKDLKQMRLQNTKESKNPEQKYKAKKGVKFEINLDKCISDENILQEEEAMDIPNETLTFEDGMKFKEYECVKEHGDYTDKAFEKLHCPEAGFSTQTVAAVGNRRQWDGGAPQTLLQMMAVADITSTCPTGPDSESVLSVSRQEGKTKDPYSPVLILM

[7] = target: T3, Ephrin type-B receptor 2 (Homo sapiens) (UniProt P29323); assay: Selectivity interaction (SelectScreen profiling (Invitrogen)) EUB0000607a EPHB2; conditions: at 2 µM
T3 sequence (whole entry): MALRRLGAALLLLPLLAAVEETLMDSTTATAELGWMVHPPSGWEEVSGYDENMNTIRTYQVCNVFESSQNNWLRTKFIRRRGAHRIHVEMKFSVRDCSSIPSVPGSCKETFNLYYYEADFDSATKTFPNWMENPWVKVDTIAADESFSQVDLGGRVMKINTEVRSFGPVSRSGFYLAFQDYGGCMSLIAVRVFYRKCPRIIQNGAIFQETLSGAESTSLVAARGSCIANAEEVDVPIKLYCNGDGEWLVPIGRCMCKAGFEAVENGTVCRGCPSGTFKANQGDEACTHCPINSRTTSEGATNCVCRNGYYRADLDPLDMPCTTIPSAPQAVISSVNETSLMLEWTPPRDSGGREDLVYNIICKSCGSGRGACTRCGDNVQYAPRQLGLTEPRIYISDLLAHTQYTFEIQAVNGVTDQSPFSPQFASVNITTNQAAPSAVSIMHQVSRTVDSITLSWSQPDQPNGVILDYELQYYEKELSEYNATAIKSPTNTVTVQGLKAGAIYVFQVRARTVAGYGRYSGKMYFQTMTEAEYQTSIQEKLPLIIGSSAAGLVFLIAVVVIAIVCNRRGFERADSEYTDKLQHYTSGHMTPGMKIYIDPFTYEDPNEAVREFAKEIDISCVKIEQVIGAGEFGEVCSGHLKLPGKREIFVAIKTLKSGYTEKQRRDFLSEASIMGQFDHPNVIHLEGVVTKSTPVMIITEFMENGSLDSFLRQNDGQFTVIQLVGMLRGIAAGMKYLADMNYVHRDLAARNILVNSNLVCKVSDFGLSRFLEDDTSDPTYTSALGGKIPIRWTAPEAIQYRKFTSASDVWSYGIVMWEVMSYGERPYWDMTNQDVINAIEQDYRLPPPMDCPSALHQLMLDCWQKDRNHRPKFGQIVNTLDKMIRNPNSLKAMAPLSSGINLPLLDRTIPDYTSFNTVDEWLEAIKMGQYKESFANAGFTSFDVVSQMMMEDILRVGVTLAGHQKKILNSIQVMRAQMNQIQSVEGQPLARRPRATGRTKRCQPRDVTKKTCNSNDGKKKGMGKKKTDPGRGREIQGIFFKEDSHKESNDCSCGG

Q: `COc1cc(Nc2nc(C)cc(-c3cnn4nc(OC)ccc34)n2)cc(C(F)(F)F)c1` was tested. Which % of control [1] did it give?
A: 100%

Q: Which dTM [2] does the source give for `CN(C(=O)c1cnn2cccnc12)c1cc2c(cc1N1CCOCC1)C(=O)N(C[C@@H](F)C(C)(C)O)C2` here?
A: 0.3 K

Q: Which % of inhibition [3] does the source give for `CC[C@@H]1[C@H](F)C(=O)N[C@@H]1COc1nccc2cc(C(N)=O)c(OC)cc12` [ZIMLOVISERTIB] here?
A: 75.7%

Q: `COCC(=O)NC/C=C/c1ccc2ncnc(Nc3ccc(Oc4ccc(C)nc4)c(C)c3)c2c1` [CP-724714] was tested. Which % of control [4] did it give?
A: 100%

Q: How did the % of control [5] turn out when `CN(C)CCOc1ccc(-c2nc(-c3ccncc3)c(-c3ccc4c(c3)CC/C4=N\O)[nH]2)cc1` was run?
A: 97%

Q: `Cc1cc(F)c(C(=O)Nc2cccc(-c3nncn3C(C)C)n2)cc1-n1cnc(C2CC2)c1` was tested. Which % of control [6] did it give?
A: 91%

Q: `CNC(=O)Nc1ccc(-c2nc(N3CC4CCC(C3)O4)c3cnn(C4CCC5(CC4)OCCO5)c3n2)cc1` was tested. Which % of inhibition [7] did it give?
A: 6%
